Results as given in the NIST ThermoML archive (doi:10.1016/j.jct.2017.09.006).
± gives the expanded uncertainty stated by the source.

Key:
[1] = Crystal; DTA
[2] = Molar enthalpy of transition or fusion; conditions: Crystal; DSC

Compound | Normal melting temperature [1] [°C] | Molar enthalpy of transition or fusion [2] [kcal/mol]
COC(=O)c1cccc(C(=O)OC)c1 [dimethyl 1,3-benzenedicarboxylate] | 67.2 ± 0.5 | 6.67 ± 0.167
Cc1ccc2ccc(C)cc2c1 [2,7-dimethylnaphthalene] | 95.0 ± 0.5 | 6.05 ± 0.263
